Source: patent US8841132B2, “Method for detecting compounds containing sulfenic acid using a 1,3-cyclohexanedione-based probe” (Wake Forest University Health Sciences, priority 2004, dated 2014)

Key:
[1] = molecular target: T1, sulfenic acid form of C165S AhpC (Salmonella typhimurium, UniProt P0A251, C166S); test: Labeling of sulfenic acid-containing C165S AhpC, adducts analysed by ESI-MS; type: biochemical; details: for Observed increase in mass of product compared with R—SH form / covalent adduct formation with the sulfenic acid form of the peroxidase: ESI-MS, 5 mM reagent; for Observed increase in mass of product compared with R—SH form: 60 min, room temperature; for covalent adduct formation with the sulfenic acid form of the peroxidase: aqueous neutral pH buffer; for labeling of the protein when 1:1 mixtures of 6 and 7 are added: ESI-MS of intact proteins
T1 construct: made in house
T1 sequence (P0A251 whole entry C166S): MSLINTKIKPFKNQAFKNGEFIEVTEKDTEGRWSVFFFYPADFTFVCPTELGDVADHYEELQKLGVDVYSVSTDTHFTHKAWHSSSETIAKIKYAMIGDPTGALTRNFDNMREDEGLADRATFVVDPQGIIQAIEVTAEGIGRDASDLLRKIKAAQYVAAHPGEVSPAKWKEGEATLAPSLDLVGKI
Protocol: (§1) Reactivity of new compounds toward cysteine sulfenic acids in proteins. To test for the reactivity of 6 and 7 toward protein sulfenic acids, a mutant, cysteine-dependent peroxidase enzyme was used in which the oxidized, sulfenic acid form of the cysteinyl redox center is stabilized, yet accessible (the C165S mutant of AhpC from Salmonella typhimurium, a peroxiredoxin) (3, 9, 14).
[drawing 11] washed proteins following incubations with the labeling agents (FIG. 1 and data not shown). As illustrated in FIG. 1 and summarized in Table 1, mass spectrometry results were completely consistent with the expected reactivity and products generated with the sulfenic acid-containing protein using dimedone, 1,3-cyclohexadione and our two new labeling agents (6 and 7). […] Under the conditions used, the sulfenic acid form of the protein either reacts with the reagent or is further oxidized during the workup or analysis of the sample, and is therefore not observed. In a subsequent experiment
Generation of pure, sulfenic acid-containing C165S AhpC. The C165S mutant of AhpC was expressed in bacteria and purified in the presence of 5 mM 1,4-dithiothreitol (added to all buffers) essentially as described previously (9). Purification of wild type AhpC was also carried out as previously described (10). For generation of the sulfenic acid form of C165S AhpC, thawed enzyme in 25 mM phosphate buffer at pH 7, containing 1 mM EDTA, was washed free of the dithiothreitol and transferred into fresh buffer using a PD-10 column (Amersham Biosciences), and pooled fractions were transferred to an anerobic cuvette. The protein solution (160 nmol in 0.60 mL) was made anaerobic by repeated cycles of argon and vacuum over about 30 min, then rapidly titrated with 11 mM hydrogen peroxide to give a maximal absorbance signal at ˜367 nm for the sulfenate anion as described previously (3, 4). In subsequent experiments, optimal sulfenic acid formation was observed by adding and mixing the hydrogen peroxide much more slowly (additions of about 0.05 eq and thorough mixing every ˜1 min) and quantitating the sulfenic acid formed using a freshly-prepared 2-nitro-5-thiobenzoate (TNB) solution (0.28 mL) and a 60 μL aliquot of the protein removed anaerobically from the cuvette (3, 4). Using this method, ˜73% of the protein was converted to the sulfenic acid form after addition of 1.08 eq of hydrogen peroxide. Protein was kept in the anaerobic cuvette at room temperature for several hours before conducting experiments with no loss in sulfenic acid content.
(§2) Labeling of sulfenic acid-containing C165S AhpC for spectral and mass spectrometric analysis. The pure, oxidized enzyme (32 μL, 6 nmol each) from the anaerobic cuvette was added to argon-flushed 500 μL Eppendorf tubes containing the compound of choice (either dimethylsulfoxide alone, or dimethylsulfoxide into which dimedone, 1,3-cyclohexanedione, 6 or 7 had been dissolved) to give a final concentration of 5 mM for the added reagent in final volumes of 50 μL, and the tubes were flushed again with argon before closing. Other redox forms of C165S AhpC or the wild-type enzyme were also tested for reactivity with one or more of these four compounds. Approximate 100 mM stock solutions of 6 or 7 in dimethylsulfoxide were standardized using expected extinction coefficients of 5,700 or 25,000 M^−1 cm^−1, respectively, for the esterified isatoic acid conjugate or the methoxycoumarin conjugate in methanol (11). Samples were incubated at room temperature for 60 min, then transferred to Apollo ultrafiltration devices (30K cutoff, Orbital Biosciences, Topsfield, Mass.), washed with 5.5 mL 10 mM ammonium bicarbonate and reconcentrated to about 50 μL, for a total of four washes (>10^8-fold dilution of the initial small molecule components).
Mass spectrometric and spectral analyses of adducts with the sulfenic acid-containing form of C165S AhpC. […]

[2] = test system: thiol, disulfide or hyperoxidized forms of AhpC (wild type or C165S); test: Control reactions with other redox forms of AhpC (ESI-MS adduct detection); type: biochemical, Salmonella typhimurium; details: for reaction with protein amine groups: reduced or oxidized wild type or reduced C165S AhpC; for reactivity of thiol, disulfide or hyperoxidized forms of AhpC (ESI-MS-detectable adduct formation): wild type or C165S
Description: as §1
The thiol group of the reduced protein and the oxidized, disulfide-bonded form of wild type AhpC were also unreactive toward these compounds, as confirmed by electrospray ionization mass spectrometry (ESI-MS) of the ammonium bicarbonate-washed
(§3) Specificity of fluorescent, cyclohexadione-derived regents toward sulfenic acids in proteins. The known reactivity of the nucleophilic center of dimedone is toward cysteine sulfenic acids and aldehydes (15, 16). […] To test for general cross-reactivity of these reagents with other oxidized sulfur-containing functional groups, we tested the reactivity of dimedone, as a model reagent, with a S-nitrosothiol and two sulfoxides.
as §2

[3] = Cross-reactivity with sulfoxide (NMR, spectroscopic and chemical isolation); details: aqueous solution
Description: as §3

[4] = cited from earlier work
[5] = Control reaction with aldehyde
[6] = Control reaction with amine
[7] = Cross-reactivity with S-nitrosothiol (absorbance spectroscopy); details: one hour, room temperature
Description: as §3

Row | SMILES | reactivity toward cysteine sulfenic acids relative to dimedone [1] | Observed increase in mass of product compared with R—SH form [1] [amu] | reaction with protein amine groups [2] | reactivity of thiol, disulfide or hyperoxidized forms of AhpC (ESI-MS-detectable adduct formation) [2] | covalent adduct formation with the sulfenic acid form of the peroxidase [1] | labeling of the protein when 1:1 mixtures of 6 and 7 are added [1] | reaction with dimethyl sulfoxide [3] | reaction with methionine sulfoxide [3] | pka of active methylene group [4] | reaction with butyraldehyde ([5]; in the presence of piperidine, 50° C., aqueous ethanol) | reaction with butyraldehyde ([5]; room temperature, absence of base) | reaction with benzylamine ([6]; aqueous ethanol) | reaction with benzylamine ([6]; organic solvent) | reaction with S-nitrosoglutathione [7]
1 | O=C1CCCC(=O)C1 [1,3-cyclohexadione, 1,3-cyclohexanedione] | at least equivalent reactivity | 109.2 |  |  |  |  |  |  |  |  |  |  |  | 
2 | CNc1ccccc1C(=O)OCCCC1CCC(=O)CC1=O (stereo not shown) [compound 6, 3-(2,4-Dioxocyclohexyl)propyl 2-(methylamino)benzoate] |  | 300.7 | do not react | lack of reactivity | gave covalent adducts | approximately equal labeling |  |  |  |  |  |  |  | 
3 | CC1(C)CC(=O)CC(=O)C1 [dimedone, 5,5-dimethyl-1,3-cyclohexanedione] |  | 137.3 |  | lack of reactivity |  |  | does not react | does not react | 5.15 | reacts | fails to react | no reaction occurs | condenses with benzylamine to form an imine | fails to react
4 | COc1ccc2cc(NC(=O)OCCCC3CCC(=O)CC3=O)c(=O)oc2c1 (stereo not shown) [compound 7, 3-(2,4-Dioxocyclohexyl)propyl 7-methoxy-2-oxo-2H-chromen-3-ylcarbamate] |  | 384.5 | do not react | lack of reactivity | gave covalent adducts | approximately equal labeling |  |  |  |  |  |  |  | 
